According to ChEMBL document CHEMBL1201862, “PubChem BioAssay data set” (2004):
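Compound exposure: 48 hours, 5 concentrations, 96-well plates. Abbreviation: GI50, concentration required for 50% inhibition of growth.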 Activity calls are given as the source filed them. No stated cut-off is given here; in the data, active = GI50 up to about 1.1 µM and inactive = higher.

Legend:
Test in all cases: NCI anticancer screen, dose series, 48 h
MDA-N = test system: MDA-N
DLD-1 = test system: DLD-1
HOP-18 = test system: HOP-18
KM-20L2 = test system: KM-20L2
LXFL 529 = test system: LXFL 529
M19-MEL = test system: M19-MEL
RXF 631 = test system: RXF 631
SNB-78 = test system: SNB-78
XF498 = test system: XF498

SMILES | GI50 (MDA-N) | GI50 (DLD-1) | GI50 (HOP-18) | GI50 (KM-20L2) | GI50 (LXFL 529) | GI50 (M19-MEL) | GI50 (SNB-78) | further results
COc1cccc2c(=O)c3c(n(C)c12)OC(C(C)C)C3 (stereo unspecified) | > 100 µM (inactive) |  |  |  |  |  |  | 
COC(=O)/C(=C\c1cn(C(C)=O)c2ccccc12)P(=O)(OC)OC | 15.1 µM (inactive) |  |  |  |  |  |  | 
COCCOC(=O)C(C)=[N+]=[N-] | > 100 µM (inactive) |  |  |  |  |  |  | 
O=C(Nc1ccc2[nH]c(C(=O)N3CC(CCl)c4c3cc([N+](=O)[O-])c3ccccc43)cc2c1)c1cc2ccccc2o1 (stereo unspecified) | > 100 µM (inactive) |  |  |  |  |  |  | 
CCN(CC)CCCCC1CCN(CC(=O)N2c3cc(Cl)ccc3NC(=O)CC2C)CC1 (stereo unspecified) |  | > 100 µM (inactive) | > 100 µM (inactive) | 40.9 µM (inactive) | > 100 µM (inactive) | > 100 µM (inactive) |  | 
COc1ccc(/C=C/C(=O)c2ccccc2)cc1OC | 4.13 µM (inactive) |  |  |  |  |  |  | 
COC(=O)C1(O)CC(=O)CCC1c1ccc(OC)cc1 (stereo unspecified) |  | > 100 µM (inactive) | > 100 µM (inactive) | > 100 µM (inactive) |  |  | > 100 µM (inactive) | GI50 (RXF 631): > 100 µM (inactive)
O[C@H]1[C@H](O)[C@@H](O)CN2CC[C@H](O)[C@H]12 [CASTANOSPERMINE] |  | > 100 µM (inactive) | > 100 µM (inactive) | > 100 µM (inactive) |  | 32.8 µM (inactive) | > 100 µM (inactive) | GI50 (XF498): > 100 µM (inactive)
O=C1C=CC(=O)c2ncccc21 | 4.56 µM (inactive) |  |  |  |  |  |  | 
COc1ccc(-c2nc3c(C(=O)NCCN(C)C)cccc3c3ccccc23)cc1 | 2.26 µM (inactive) |  |  |  |  |  |  | 
CCC(C(=O)O)c1ccc(OCc2ccccc2)cc1 (stereo unspecified) |  | > 100 µM (inactive) |  | > 100 µM (inactive) | > 100 µM (inactive) |  | > 100 µM (inactive) | GI50 (XF498): > 100 µM (inactive)
C(=N\CC/N=C/c1cccc2ccccc12)/c1cccc2ccccc12 |  | > 100 µM (inactive) | > 100 µM (inactive) | > 100 µM (inactive) | > 100 µM (inactive) | > 100 µM (inactive) | > 100 µM (inactive) | GI50 (XF498): > 100 µM (inactive)
O=C1c2c(F)c(F)c(F)c(F)c2SC2=Nc3cccc4cccc(c34)N12 | 5.05 µM (inactive) |  |  |  |  |  |  | 
O=C1NC(=S)NC(=O)C1=C(O)Nc1ccccc1 | 30 µM (inactive) | 36.6 µM (inactive) | 42.4 µM (inactive) | 44.9 µM (inactive) |  | 37.2 µM (inactive) | 44.1 µM (inactive) | 
CC1=C(C(=O)Nc2c(C)cccc2C)C(c2ccccc2Cl)C(C(=O)Nc2c(C)cccc2C)=C(C)N1 |  | > 100 µM (inactive) |  | > 100 µM (inactive) | > 100 µM (inactive) | > 100 µM (inactive) | > 100 µM (inactive) | GI50 (XF498): > 100 µM (inactive)
S=C1NC(c2ccccc2)NC(c2ccccc2)S1 (stereo unspecified) | > 100 µM (inactive) |  |  |  |  |  |  | 
CC12CCCCC1=C(F)C(F)(F)S2 (stereo unspecified) | 21.9 µM (inactive) |  |  |  |  |  |  | 
O=C(Nc1cccc2c1[nH]c1c(-c3ccccc3)nccc12)c1ccccc1[N+](=O)[O-] |  |  | > 100 µM (inactive) | 11.2 µM (inactive) | 25.5 µM (inactive) |  | 30.7 µM (inactive) | GI50 (RXF 631): 17.9 µM (inactive)
COC(=O)C(Cc1ccccc1)NS(=O)(=O)c1ccc(-c2c3nc(c(-c4ccc(S(=O)(=O)NC(Cc5ccccc5)C(=O)OC)cc4)c4ccc([nH]4)c(-c4ccc(S(=O)(=O)NC(Cc5ccccc5)C(=O)OC)cc4)c4nc(c(-c5ccc(S(=O)(=O)NC(Cc6ccccc6)C(=O)OC)cc5)c5ccc2[nH]5)C=C4)C=C3)cc1 (stereo unspecified) | > 100 µM (inactive) |  |  |  |  |  |  | 
C=C1CC(COc2cc(=O)oc3ccccc23)(c2ccccc2)OC1=O (stereo unspecified) | 2.05 µM (inactive) |  |  |  |  |  |  | 
CO[C@H]1C[C@H](O[C@H]2CC[C@]3(C=O)[C@H]4CC[C@]5(C)[C@@H](C6=CC(=O)OC6)CC[C@]5(O)[C@@H]4CC[C@]3(O)C2)O[C@H](C)[C@H]1O [CYMARIN] | 0.136 µM (active) |  |  |  |  |  |  | 
COC(=O)CCCc1nc2ccccc2nc1/N=N/c1ccccc1 | 48.2 µM (inactive) |  |  |  |  |  |  | 
CCOc1ccccc1NC(=O)C1=C(C)NC(C)=C(C(=O)Nc2ccccc2OCC)C1c1ccc([N+](=O)[O-])cc1 |  | > 100 µM (inactive) | > 100 µM (inactive) | > 100 µM (inactive) | 70.5 µM (inactive) | > 100 µM (inactive) | > 100 µM (inactive) | GI50 (RXF 631): > 100 µM (inactive)
COc1c(OC(C)=O)ccc(/C=C2\N=C(C)OC2=O)c1[N+](=O)[O-] |  | > 100 µM (inactive) | > 100 µM (inactive) | > 100 µM (inactive) | > 100 µM (inactive) | > 100 µM (inactive) | > 100 µM (inactive) | GI50 (RXF 631): > 100 µM (inactive)
Cc1ccc(NC(=O)C(=O)CC(=O)c2c(C)[n+]([O-])c3ccccc3[n+]2[O-])cc1C |  |  | 48.9 µM (inactive) | 91.8 µM (inactive) | > 100 µM (inactive) | 91.2 µM (inactive) | > 100 µM (inactive) | 
COc1ccc(NC(=O)/C(Cc2cc(=O)oc3cc(O)ccc23)=N\NC(C)(C)C)c(OC)c1 |  |  |  | > 100 µM (inactive) | > 100 µM (inactive) | > 100 µM (inactive) | > 100 µM (inactive) | GI50 (XF498): > 100 µM (inactive)
COC(=O)c1sc(=S)sc1SCc1cccc(CSc2sc(=S)sc2C(=O)OC)c1 | > 100 µM (inactive) |  |  |  |  |  |  | 
COc1cc(C2S/C(=C/c3ccccc3)C(=O)N2c2cc(Cl)ccc2Cl)cc(OC)c1OC (stereo unspecified) | 34.5 µM (inactive) |  |  |  |  |  |  | 
Cc1cccc(-c2cc(O)c3ccc(C)nc3n2)c1 | 0.0283 µM (active) |  |  |  |  |  |  | 
